Test results published in patent US20240132431A1, “METHOD FOR ALKYLATING ACIDIC FUNCTIONAL GROUP” (Chugai Seiyaku Kabushiki Kaisha, priority 2021, published 2024).

Target: T1, Bcl-2 protein (Recombinant Human Bcl-2 Protein) (Homo sapiens, UniProt P10415)
T1 construct: purchased Novus NBP2-34889
Assay: Binding evaluation of mixture library compounds to Bcl-2 using AS-MS (affinity selection mass spectrometry)
Conditions: for ASMS ratio (%) n = 1: replicate n = 1; for ASMS ratio (%) n = 1 / ASMS ratio (%) n = 2: ASMS Ratio(%)=(A−C)/B×100; for ASMS ratio (%) n = 2: replicate n = 2
How it was run: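 Affinity selection MS: Bcl-2 20 μM + 1200-cpd mixture, […]/cpd, Tris pH 7.4 buffer w/ Tween-20, DTT; 1 h 23° C dark; P-2 spin SEC; MeCN/MeOH extraction; RP LC/MS. ASMS Ratio(%) = (A−C)/B×100.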

[1] = AS-MS, mixture of 1200 compounds, Bcl-2
[2] = AS-MS on the mixture of 1200 library compounds

T1 sequence (P10415 whole entry): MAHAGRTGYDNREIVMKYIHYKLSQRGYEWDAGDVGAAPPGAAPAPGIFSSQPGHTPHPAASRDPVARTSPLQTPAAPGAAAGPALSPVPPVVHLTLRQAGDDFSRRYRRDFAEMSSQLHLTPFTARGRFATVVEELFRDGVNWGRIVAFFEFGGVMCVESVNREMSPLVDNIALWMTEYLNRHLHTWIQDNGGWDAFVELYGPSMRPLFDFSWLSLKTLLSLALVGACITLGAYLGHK

Row | ASMS ratio (%) (n = 1) | ASMS ratio (%) (n = 2) | Compound | also measured
1 |  |  | CCOc1cccc(C#Cc2cncc(C(=O)N3CCN(c4ccc(C(=O)NS(C)(=O)=O)nn4)CC3)c2)c1 [B2I009-01, 6-[4-[5-[2-(3-Ethoxyphenyl)ethynyl]pyridine-3-carbonyl]piperazin-1-yl]-N-methylsulfonylpyridazine-3-carboxamide] | ASMS ratio (%) n = 1 (AS-MS, mixture library, Bcl-2): 0.0%; ASMS ratio (%) n = 2 (AS-MS, mixture library, Bcl-2): 0.0%
2 |  |  | 4-[4-[[2-(5-Ethoxypyridin-3-yl)phenyl]methyl]piperazin-1-yl]-N-propylbenzamide [B1M041-01] | ASMS ratio (%) n = 1 [1]: 0.7%; ASMS ratio (%) n = 2 [1]: −3.5%
3 | 0.0% | 0.0% | CCOc1cccc(-c2cnn(-c3cc(C(=O)N4CCN(c5ccc(C(=O)NS(C)(=O)=O)cc5)CC4)cc(C(F)(F)F)c3)c2)c1 [B2I043-01, 4-[4-[3-[4-(3-Ethoxyphenyl)pyrazol-1-yl]-5-(trifluoromethyl)benzoyl]piperazin-1-yl]-N-methylsulfonylbenzamide] | 
4 |  | 0.0% | CCOc1cncc(C#Cc2ccccc2CN2CCN(c3ccc(C(=O)NS(C)(=O)=O)cc3)CC2)c1 [B2I070-01, 4-[4-[[2-[2-(5-Ethoxypyridin-3-yl)ethynyl]phenyl]methyl]piperazin-1-yl]-N-methylsulfonylbenzamide] | 
5 | 0.0% | −0.7% | CCOc1cncc(-c2ccc(C(C)N3CCN(c4ccc(C(=O)NS(=O)(=O)CCC(F)(F)F)cc4)CC3)cc2)c1 (stereo not shown) [B2N098-01, 4-[4-[1-[4-(5-Ethoxypyridin-3-yl)phenyl]ethyl]piperazin-1-yl]-N-(3,3,3-trifluoropropylsulfonyl)benzamide] | 
6 |  |  | CCOc1cccc(-c2ccccc2CN2CCN(c3ccc(C(=O)N(CC)CC)cc3)CC2)c1 [B4J045-01, 4-[4-[[2-(3-Ethoxyphenyl)phenyl]methyl]piperazin-1-yl]-N,N-diethylbenzamide] | ASMS ratio (%) n = 1 [2]: 1.1%; ASMS ratio (%) n = 2 [2]: 0.3%
7 |  |  | CCOc1cccc(-c2cc(CN3CCN(c4ccc(C(=O)NCC(F)(F)F)nn4)CC3)cc(C(F)(F)F)c2)c1 [B1K087-01] | ASMS ratio (%) n = 1 [1]: 1.8%; ASMS ratio (%) n = 2 [1]: −0.1%
8 | 13.0% | 4.8% | CCOc1cncc(-c2cc(CN3CCN(c4ccc(C(=O)NS(=O)(=O)c5ccc(NCCSc6ccccc6)c(C(F)(F)F)c5)cc4)CC3)cc(OC(C)C)c2)c1 [B2R058-01, 4-[4-[[3-(5-Ethoxypyridin-3-yl)-5-propan-2-yloxyphenyl]methyl]piperazin-1-yl]-N-[4-(2-phenylsulfanylethylamino)-3-(trifluoromethyl)phenyl]sulfonylbenzamide] | 
9 | 0.0% | 0.0% | CCOc1cccc(-c2cc(CN3CCN(c4ccc(C(=O)NS(C)(=O)=O)nn4)CC3)cc(OCC)c2)c1 [B2I081-01] | 
10 |  |  | CCOc1cncc(-c2cc(C(=O)N3CCN(c4ccc(C(=O)NS(=O)(=O)CC56CC7CC(CC(C7)C5)C6)nn4)CC3)cc(C(C)(C)C)c2)c1 [B2A016-01, N-(1-Adamantylmethylsulfonyl)-6-[4-[3-tert-butyl-5-(5-ethoxypyridin-3-yl)benzoyl]piperazin-1-yl]pyridazine-3-carboxamide] | ASMS ratio (%) n = 1 (AS-MS, mixture library, Bcl-2): 0.0%; ASMS ratio (%) n = 2 (AS-MS, mixture library, Bcl-2): 2.5%
11 |  |  | CCOc1cccc(C#Cc2ccccc2C(=O)N2CCN(c3ccc(C(=O)NS(C)(=O)=O)cc3)CC2)c1 [B2I029-01, 4-[4-[2-[2-(3-Ethoxyphenyl)ethynyl]benzoyl]piperazin-1-yl]-N-methylsulfonylbenzamide] | ASMS ratio (%) n = 1 (AS-MS, mixture library, Bcl-2): 0.0%; ASMS ratio (%) n = 2 (AS-MS, mixture library, Bcl-2): 0.0%
12 |  |  | CCOc1cccc(-c2cc(C(=O)N3CCN(c4ccc(C(=O)N(CC)CC)nn4)CC3)cc(C(F)(F)F)c2)c1 [B4J017-01, 6-[4-[3-(3-Ethoxyphenyl)-5-(trifluoromethyl)benzoyl]piperazin-1-yl]-N,N-diethylpyridazine-3-carboxamide] | ASMS ratio (%) n = 1 [2]: −0.3%; ASMS ratio (%) n = 2 [2]: −0.5%
13 |  |  | CCOc1cncc(C#Cc2ccccc2CN2CCN(c3ccc(C(=O)N(CC)CC)cc3)CC2)c1 [B4J070-01] | ASMS ratio (%) n = 1 (AS-MS, mixture library, Bcl-2): 0.0%; ASMS ratio (%) n = 2 (AS-MS, mixture library, Bcl-2): 0.0%
14 |  |  | CCOc1cncc(C#Cc2cncc(C(=O)N3CCN(c4ccc(C(=O)Nc5ccc(OC)cc5)nn4)CC3)c2)c1 [B1O010-01, 6-[4-[5-[2-(5-Ethoxypyridin-3-yl)ethynyl]pyridine-3-carbonyl]piperazin-1-yl]-N-(4-methoxyphenyl)pyridazine-3-carboxamide] | ASMS ratio (%) n = 1 [2]: 0.0%; ASMS ratio (%) n = 2 [2]: 0.0%
15 | 0.0% | −0.4% | CCOc1cncc(C#Cc2ccccc2C(=O)N2CCN(c3ccc(C(=O)NS(=O)(=O)CCC(F)(F)F)nn3)CC2)c1 [B2N008-01, 6-[4-[2-[2-(5-Ethoxypyridin-3-yl)ethynyl]benzoyl]piperazin-1-yl]-N-(3,3,3-trifluoropropylsulfonyl)pyridazine-3-carboxamide] | 
16 | −10.7% | 8.3% | CCOc1cncc(-c2ccccc2CN2CCN(c3ccc(C(=O)NS(=O)(=O)C(C)(C)C)nn3)CC2)c1 [B2L072-01, N-tert-Butylsulfonyl-6-[4-[[2-(5-ethoxypyridin-3-yl)phenyl]methyl]piperazin-1-yl]pyridazine-3-carboxamide] | 
17 | 19.8% | −10.7% | CCOc1cncc(-c2ccc(CN3CCN(c4ccc(C(=O)NS(=O)(=O)c5ccc(NCCSc6ccccc6)c(C(F)(F)F)c5)cc4)CC3)c3ccccc23)c1 [B2R066-01, 4-[4-[[4-(5-Ethoxypyridin-3-yl)naphthalen-1-yl]methyl]piperazin-1-yl]-N-[4-(2-phenylsulfanylethylamino)-3-(trifluoromethyl)phenyl]sulfonylbenzamide] | 
18 |  |  | CCOc1cncc(-c2ccc(CN3CCN(c4ccc(C(=O)NS(=O)(=O)CC56CC7CC(CC(C7)C5)C6)cc4)CC3)c(OC)c2)c1 [B2A054-01, N-(1-Adamantylmethylsulfonyl)-4-[4-[[4-(5-ethoxypyridin-3-yl)-2-methoxyphenyl]methyl]piperazin-1-yl]benzamide] | ASMS ratio (%) n = 1 (AS-MS, mixture library, Bcl-2): 17.5%; ASMS ratio (%) n = 2 (AS-MS, mixture library, Bcl-2): −0.9%
19 |  |  | CCOc1cncc(-c2cc(C(=O)N3CCN(c4ccc(C(=O)N(C)CC56CC7CC(CC(C7)C5)C6)nn4)CC3)cc(C(C)(C)C)c2)c1 [B3A016-01, N-(1-Adamantylmethyl)-6-[4-[3-tert-butyl-5-(5-ethoxypyridin-3-yl)benzoyl]piperazin-1-yl]-N-methylpyridazine-3-carboxamide] | ASMS ratio (%) n = 1 [2]: 2.8%; ASMS ratio (%) n = 2 [2]: 0.1%
20 |  |  | CCOc1cccc(C#Cc2cc(C(=O)N3CCN(c4ccc(C(=O)Nc5ccc(OC)cc5)nn4)CC3)cc(C(F)(F)F)c2)c1 [B1O019-01, 6-[4-[3-[2-(3-Ethoxyphenyl)ethynyl]-5-(trifluoromethyl)benzoyl]piperazin-1-yl]-N-(4-methoxyphenyl)pyridazine-3-carboxamide] | ASMS ratio (%) n = 1 [2]: 0.6%; ASMS ratio (%) n = 2 [2]: 0.2%
21 | 7.5% | 7.7% | CCOc1cccc(-c2ccc(C(=O)N3CCN(c4ccc(C(=O)NS(=O)(=O)c5ccc(NCCSc6ccccc6)c(C(F)(F)F)c5)nn4)CC3)c3ccccc23)c1 [B2R013-01, 6-[4-[4-(3-Ethoxyphenyl)naphthalene-1-carbonyl]piperazin-1-yl]-N-[4-(2-phenylsulfanylethylamino)-3-(trifluoromethyl)phenyl]sulfonylpyridazine-3-carboxamide] | 
22 |  |  | CCOc1cncc(-c2cc(C(=O)N3CCN(c4ccc(C(=O)NS(C)(=O)=O)nn4)CC3)cc(C(C)(C)C)c2)c1 [B2I016-01, 6-[4-[3-tert-Butyl-5-(5-ethoxypyridin-3-yl)benzoyl]piperazin-1-yl]-N-methylsulfonylpyridazine-3-carboxamide] | ASMS ratio (%) n = 1 (AS-MS, mixture library, Bcl-2): 0.0%; ASMS ratio (%) n = 2 (AS-MS, mixture library, Bcl-2): 0.0%
23 |  | 0.0% | CCOc1cccc(-c2ccc(CN3CCN(c4ccc(C(=O)NS(=O)(=O)C(C)(C)C)cc4)CC3)c(CC)c2)c1 [B2L049-01, N-tert-Butylsulfonyl-4-[4-[[4-(3-ethoxyphenyl)-2-ethylphenyl]methyl]piperazin-1-yl]benzamide] | 
24 | 18.6% | 15.1% | CCOc1cncc(-c2ccc(C(=O)N3CCN(c4ccc(C(=O)NS(=O)(=O)c5ccc(NCCSc6ccccc6)c(C(F)(F)F)c5)nn4)CC3)c3ccccc23)c1 [B2R014-01, 6-[4-[4-(5-Ethoxypyridin-3-yl)naphthalene-1-carbonyl]piperazin-1-yl]-N-[4-(2-phenylsulfanylethylamino)-3-(trifluoromethyl)phenyl]sulfonylpyridazine-3-carboxamide] | 
25 | 0.8% | 1.4% | CCOc1cccc(-c2ccc(CN3CCN(c4ccc(C(=O)NS(C)(=O)=O)cc4)CC3)cc2C)c1 [B2I047-01] | 
26 | 13.0% | 0.0% | CCOc1cccc(-c2cnn(-c3cc(C(=O)N4CCN(c5ccc(C(=O)NS(=O)(=O)c6ccc(NCCSc7ccccc7)c(C(F)(F)F)c6)nn5)CC4)cc(C(F)(F)F)c3)c2)c1 [B2R021-01, 6-[4-[3-[4-(3-Ethoxyphenyl)pyrazol-1-yl]-5-(trifluoromethyl)benzoyl]piperazin-1-yl]-N-[4-(2-phenylsulfanylethylamino)-3-(trifluoromethyl)phenyl]sulfonylpyridazine-3-carboxamide] | 
27 | 0.0% | 0.0% | CCOc1cncc(C#Cc2cc(C(=O)N3CCN(c4ccc(C(=O)NS(=O)(=O)C(C)(C)C)cc4)CC3)cc(C(F)(F)F)c2)c1 [B2L042-01, N-tert-Butylsulfonyl-4-[4-[3-[2-(5-ethoxypyridin-3-yl)ethynyl]-5-(trifluoromethyl)benzoyl]piperazin-1-yl]benzamide] | 
